Source: ChEMBL document CHEMBL4376833, “Influence of Non-natural Cationic Amino Acids on the Biological Activity Profile of Innate Defense Regulator Peptides” (J Med Chem, 2019)
pIC50: −log10 of the molar value. ≈ marks a conversion by molar mass, not a printed value. Calls of active or inactive are those of the source. Unless noted, the calls are words filed in the database; no cut-off is given here. Non-standard residues stand in square brackets, D forms with d. Residues, ends and D or L forms follow the SMILES beside them. Orn = NCCC[C@H](N)C(=O)O; Dap = NC[C@H](N)C(=O)O

Key:
Staphylococcus aureus [1] = test: Antibacterial activity against methicillin-resistant Staphylococcus aureus assessed as bacterial growth inhibition in MHB medium measured after overnight incubation by CLSI protocol based broth dilution method; format: functional
Staphylococcus aureus [2] = test: Antibiofilm activity against methicillin-resistant Staphylococcus aureus assessed as inhibition of biofilm formation incubated for overnight by crystal violet staining based microtiter plate assay; format: functional, organism-based
Staphylococcus aureus [3] = test: Antibacterial activity against methicillin-resistant Staphylococcus aureus assessed as alteration in bacterial growth in TSB medium supplemented with 1% glucose at concentration of MIC in MHB medium measured after overnight incubation by CLSI protocol based broth dilution method; format: functional, organism-based
PBMC [4] = test: Cytotoxicity against human PBMC assessed as decrease in cell viability at 10 to 40 uM incubated for overnight by LDH assay; format: cell-based
PBMC [5] = test: Immunostimulatory activity in human PBMC assessed as induction of chemokine MCP1 production at 10 to 40 uM incubated for overnight by ELISA; format: functional, cell-based
PBMC [6] = test: Proinflammatory activity in human PBMC assessed as increase in LPS-stimulated IL1 production at 40 uM incubated for overnight in presence nof Pseudomonas aeruginosa PAO1 LPS by ELISA; format: cell-based
[7] = Binding affinity to DPC micelle assessed as increase in fluorescence emission intensity at maximum wavelength at 1 uM in TRIS buffer at pH 7.4 measured after 24 hrs by Trp emission fluorescence spectroscopy relative to TRIS buffer
[8] = Binding affinity to DPC micelle assessed as blue shift with maximum emission at wavelength of 352 nm at 1 uM in TRIS buffer at pH 7.4 measured after 24 hrs by Trp emission fluorescence spectroscopy
[9] = Binding affinity to SDS micelle assessed as blue shift with maximum emission at wavelength between 339 to 344 nm at 1 uM in TRIS buffer at pH 7.4 measured after 24 hrs by Trp emission fluorescence spectroscopy
Staphylococcus aureus [10] = test: Antibacterial activity against methicillin-resistant Staphylococcus aureus assessed as alteration in bacterial growth in TSB medium supplemented with 1% glucose up to 64 uM measured after overnight incubation by CLSI protocol based broth dilution method; format: functional, organism-based
[11] = Stability of compound assessed as bovine trypsin-mediated compound hydrolysis at 10 uM incubated for 30 mins by RP-HPLC analysis; format: ADME, Bos taurus; conditions: cattle, read-out: Drug degradation
[12] = Binding affinity to SDS micelle assessed as increase in fluorescence emission intensity at maximum wavelength at 1 uM in TRIS buffer at pH 7.4 measured after 24 hrs by Trp emission fluorescence spectroscopy relative to TRIS buffer
Staphylococcus aureus [13] = test: Antibacterial activity against methicillin-resistant Staphylococcus aureus assessed as bacterial growth inhibition in TSB medium supplemented with 1% glucose measured after overnight incubation by CLSI protocol based broth dilution method; format: functional, organism-based
[14] = Binding affinity to DPC micelle assessed as blue shift with maximum fluorescence emission at 1 uM in TRIS buffer at pH 7.4 measured after 24 hrs by Trp emission fluorescence spectroscopy
PBMC [15] = test: Proinflammatory activity in human PBMC assessed as increase in LPS-stimulated IL1 production at 40 uM incubated for overnight in presence of Pseudomonas aeruginosa PAO1 LPS by ELISA relative to control; format: cell-based
PBMC [16] = test: Cytotoxicity against human PBMC assessed as decrease in cell viability at 40 uM incubated for overnight by LDH assay relative to control; format: cell-based
Staphylococcus aureus [17] = test: Antibacterial activity against methicillin-resistant Staphylococcus aureus assessed as alteration in bacterial growth incubated for overnight by microtiter plate based spectrophotometric analysis; format: functional, organism-based
Staphylococcus aureus [18] = test: Antibiofilm activity against methicillin-resistant Staphylococcus aureus assessed as inhibition of biofilm formation by measuring residual biofilm growth incubated for overnight at 10-fold dilution by crystal violet staining based microtiter plate assay relative to control; format: functional
[19] = Binding affinity to DPC micelle assessed as blue shift with maximum emission at wavelength of 340 nm at 1 uM in TRIS buffer at pH 7.4 measured after 24 hrs by Trp emission fluorescence spectroscopy

Compound	MIC (Staphylococcus aureus [1])	pIC50 (Staphylococcus aureus [2])	Activity (Staphylococcus aureus [3])	Activity (PBMC [4])	Activity (PBMC [5])	Activity (PBMC [6])	fold change (FC) [7]	Activity [9]	Activity (Staphylococcus aureus [10])	metabolised at 0.5 h, 10 µM [11]	Activity [12]	inhibition (Staphylococcus aureus [13])	Activity [14]	fold change (FC) (PBMC [15])	also measured
CC[C@H](C)[C@H](NC(=O)[C@H](CCCN)NC(=O)[C@@H](NC(=O)[C@H](CCCN)NC(=O)[C@@H](NC(=O)[C@@H](NC(=O)[C@H](CC(C)C)NC(=O)[C@H](CCCN)NC(=O)[C@@H](N)C(C)C)[C@@H](C)CC)C(C)C)C(C)C)C(=O)N[C@@H](Cc1c[nH]c2ccccc12)C(=O)N[C@@H](CCCN)C(=O)N[C@@H](CCCN)C(N)=O (H-V[Orn]LIV[Orn]V[Orn]IW[Orn][Orn]-NH2)	32 µM (≈ 45.1 µg/mL)	4.49	Active	Non-Toxic	Active	Toxic	2 to 6	Active	Active	60%	inactive	inactive	Active		Activity [8]: Active
CC[C@H](C)[C@H](NC(=O)[C@H](CN)NC(=O)[C@@H](NC(=O)[C@H](C)NC(=O)[C@@H](NC(=O)[C@@H](NC(=O)[C@H](CC(C)C)NC(=O)[C@H](CN)NC(=O)[C@@H](N)C(C)C)[C@@H](C)CC)C(C)C)C(C)C)C(=O)N[C@@H](Cc1c[nH]c2ccccc12)C(=O)N[C@@H](CN)C(=O)N[C@@H](CN)C(N)=O (H-V[Dap]LIVAV[Dap]IW[Dap][Dap]-NH2)	4 µM (≈ 5.02 µg/mL)	4.89	Active	Non-Toxic	Active		2 to 6	Active	Active	30%	inactive	inactive	Active	4 to 8	
H-VKLIVKVKIWKK-NH2	4 µM	5.00	Active		Active		2 to 6	Active	Active	18%		inactive	Active	4 to 8	Activity (PBMC [16]): 40%; fold change (FC) [12]: 2.5
H-VKLIVAVKIWKK-NH2	4 µM	4.90	Active	Non-Toxic	Active	Toxic	2 to 6	Active	Active	5%	inactive	inactive	Active		
H-VRLIVAVRIWRR-NH2	4 µM	5.22 to 5.40	Active		inactive			Active	Active	60%		inactive	Active		Activity (Staphylococcus aureus [17]): Active; inhibition (Staphylococcus aureus [2]): Dose-dependent effect; residual biofilm growth (% of control) (Staphylococcus aureus [18]): 8.5%; Activity [19]: Active
